# Measured values taken from patent publication US20050106153A1, “Combined physical and immunotherapy for cancer” (WOUND HEALING OF OKLAHOMA, priority 1995, published 2005).
# System: DMBA-4 metastatic transplantable rat mammary tumor
# Assay: Survival of rats with tumor transplant after laser/sensitizer assisted immunotherapy
# Type: in vivo, Wistar Furth female rats
# Description: A diode laser was used in this study. The Industrial Semiconductor Laser ISL50F (McDonnell Douglas Aerospace, St. Louis, Mo.), employs a diode array that is electrically powered by a diode driver. The laser emits radiation at wavelength of 808±10 nm, either in pulsed or in continuous mode. Its maximum near infrared power in the available configuration output is 35 watts. The laser is operated with standard electric power (110/120 VAC). A microprocessor monitors and adjusts the laser operating parameters. Laser energy can be delivered through optical fibers of various sizes. A red laser diode emits 670 nm light at 0.9 mW as the aiming beam. The continuous wave mode was employed in this experiment.
# In the experiment, different power and duration of laser irradiation, ranging from 3 minutes at 5 watts to 5 minutes at 15 watts, were used. The output power was measured before, during and after the procedure using a Joule/Watt meter (Ophir Optics, Israel). Two types of fiber optics were used: 600 μm and 1200 μm in diameter.
# Wistar Furth female rats, age 6 to 7 weeks and weighing 100 to 125 grams, were chosen for the study. The model is a metastatic transplantable rat mammary tumor. The tumor strain was the DMBA-4. Tumor cells (about 25,000 cells) were transplanted to the rats by injection into the superficial inguinal area between the skin and the muscle layer. Certain selected rats were injected with tumor cells in both left and right inguinal areas for simultaneous tumor growth.
# The rats were fed a special food, a high saturated fat diet, to facilitate the growth of the tumor. The tumor usually grew to about 1 to 4 cm^3 within 10 to 14 days of tumor transplantation. In most cases the rat tumors were treated before they grew beyond 5 cm^3.
# Before laser treatment, anesthesia was applied (100 μl xylazine and ketamine solution IM) and the hair overlaying the tumor was clipped and shaved. After the treatment, the rats were maintained in separate cages and still fed with the same high fat diet. […]
compound,measurement,setting,value
"CC1(C)C(/C=C/C=C/C=C/C=C2\N(CCCCS(=O)(=O)O)c3ccc4ccccc4c3C2(C)C)=[N+](CCCCS(=O)(=O)[O-])c2ccc3ccccc3c21 [ICG-H2O, indocyanine green]",effect on survival rate,"second group, treated by laser with ICG-H2O solution, vs control",did not show any improvement on the survival rate
same,Survival Days,"whole group, laser treated, data up to Jan. 16, 1995",29.0 ± 3.5 days
same,average survival time after the tumor transplant,"whole group, laser treated, up to Apr. 1, 1995",29.0 days
